Patent US20250368639A1, “SOLID FORMS OF A COMPOUND FOR TREATING OR PREVENTING HYPERURICEMIA OR GOUT” (ATOM THERAPEUTICS CO., LTD, priority 2022, published 2025)
In brackets after ≈: the same amount, converted by molar mass.

Assays:
[1] = Visual solubility of Form 1 in common solvents; assay type: physicochemical; conditions: thermodynamic from solid
Protocol: Solubility of Form 1 was tested visually. About 5 mg of Form I was accurately weighed into a glass vial of 5 ml. Small amounts of solvent was added gradually into the vial until the compound was dissolved or when the total amount added reached 5 ml. The cumulative volume of the solvent was recorded.

Heating study of Form 1 = assay type: physicochemical; conditions: 110° C. about 10 minutes / 100° C. 20 minutes
Protocol: About 150 mg of Form 1 was heated to 110° C. and maintained for about 10 minutes. The sample color changed from light yellow to dark yellow. The darker sample was evaluated with XRPD. The sample color changed back to light yellow at the conclusion of the XRPD evaluation, which was similar to the color before the heating treatment. […] Another sample of Form 1 was heated in an oven at 100° C. for 20 minutes and subsequently analyzed for the moisture content using KF method. The moisture content of heated Form 1 was 6.8%. […] The product is unstable and will rapidly absorb water.

With `CCc1nc2ccccn2c1C(=O)c1cc(Br)c(O)c(C#N)c1` [Form 1, 3-bromo-5-[(2-ethylimidazo[1,2-a]pyridin-3-yl)carbonyl]-2-hydroxybenzonitrile] the Solubility ([1]; acetone, organic solvent or mixture) was less than 1 mg/mL, the Solubility ([1]; acetone:water 3:1, organic solvent or mixture, Acetone:water = 3:1) was less than 1 mg/mL and the Solubility ([1]; acetonitrile (ACN), organic solvent or mixture) was less than 1 mg/mL. It also gave a Solubility ([1]; dichloromethane (DCM), organic solvent or mixture) of less than 1 mg/mL, a Solubility ([1]; dimethylformamide (DMF), organic solvent or mixture) greater than 25 mg/mL and a Solubility ([1]; dimethylsulfoxide (DMSO), organic solvent or mixture) greater than 25 mg/mL. For the same molecule, the Solubility ([1]; ethanol, organic solvent or mixture, Ethanol (EtOH)) was less than 1 mg/mL, the Solubility ([1]; ethyl acetate, organic solvent or mixture, Ethyl acetate (EtAc)) was less than 1 mg/mL and the Solubility ([1]; heptane, organic solvent or mixture) was less than 1 mg/mL. For the same molecule, the Solubility ([1]; isopropyl alcohol, organic solvent or mixture) was less than 1 mg/mL, the Solubility ([1]; methanol, organic solvent or mixture, Methanol (MeOH)) was less than 1 mg/mL and the Solubility ([1]; methanol:water 3:1, organic solvent or mixture, Methanol:water = 3:1) was less than 1 mg/mL. It also gave a Solubility ([1]; methyl ethyl ketone (MEK), organic solvent or mixture) of less than 1 mg/mL, a Solubility ([1]; tetrahydrofuran (THF), organic solvent or mixture) of roughly 3 mg/mL (≈ 8100 µM) and a Solubility ([1]; toluene, organic solvent or mixture) of less than 1 mg/mL. The Solubility ([1]; water, Water (H2O)) was less than 1 mg/mL and the Behaviour upon heating (Heating study of Form 1) was “may lose water upon heating”.
